The values that follow come from US7514076B2, “Antitumor agents” (priority 1997, dated 2009).

One data set relates to S180 solid tumor. Kind of data set: Antitumor effect of PEG-DAO on S180 solid tumor model. Type of data set: in vivo, ddY mice. The conditions noted are these: 1.5 U i.v. day 7, D-proline 0.5 mmol i.p. 2 and 4 hrs after; FIG. 10. The procedure: S180 cells (2×10^6 cells) were inoculated subcutaneously to ddY mice. Seven days after tumor inoculation, mice were injected i.v. with 1.5 U of native DAO or PEG-DAO followed by D-proline 0.5 mmol, i.p. (2 and 4 hrs after DAO administration).
In the FIG. 10, —●— indicates the result of treated mice by administration of PEG-DAO by […]. injection with D-proline, and —▴— indicates the result of administration of native DAO similarly with D-proline. —◯— indicates the result of control mice without any drug treatment Data are means (n=4-8)±SE (standard error). […] Thus, in vivo activity of PEG-DAO is excellent.

Data set [1] is described as follows: Enzyme activity of PEG-XO: formation of uric acid from hypoxanthine (absorbance at 290 nm). The conditions noted are these: for XO activity: 50 μM hypoxanthine, 50 mM sodium phosphate buffer pH 7.4, room temperature; for enzyme activity compared with native XO: relative to native XO. Type of data set: biochemical. The procedure: The enzyme activity was determined by quantifying the formation of uric acid from hypoxanthine by measuring the increase of absorbance at 290 nm, an absorption maximum of uric acid. The initial concentration of the substrate hypoxanthine was 50 μM. The enzyme reaction was carried out in 50 mM sodium phosphate buffer (pH 7.4) at room temperature. One unit of XO activity is defined as the velocity of the formation of 1 μmol of uric acid per min.

Data set [2] in a line: Time course of tumor accumulation of PEG-XO-high (XO activity in tumor homogenate, pterin substrate). The format is in vivo, ddY mice. The procedure:
The time course of the tumor accumulation of PEG-XO-high was examined by measuring the enzyme activity derived from PEG-XO-high in the tumor tissue. Tumor bearing mice were prepared as described above. PEG-XO-high (2 U/ml, 100 μl) was injected intravenously (i.v.) to the mice. After a given period, the tumor tissue was removed as described above. The tumor tissue was then homogenized with three volumes of 20 mM potassium phosphate buffer pH 7.6 which contained 2 mM ethylenediaminetetraacetic acid, 2 mM amidinophenylmethanesulfonyl fluoride, 10 mM dithiothreitol, 0.5 μg/ml of leupeptin. The homogenates were centrifuged at 10,000 g for 20 min, and each supernatant was applied to a FPLC system with a Superose 6 HR 10/30 column similar to the previous section. The enzyme activity of the PEG-XO-high fraction was determined fluorometrically, i.e., the formation of fluorescent isoxanthopterin from pterin was measured with an excitation at 345 nm and an emission at 390 nm, in which hypoxanthine was replaced with pterin as substrate. The quantification was made using the calibration curve of the authentic isoxanthopterin (Aldrich Chemical, Milwaukee, Wis.).

Another data set relates to S-180 solid tumor. Description: Antitumor activity of PEG-XO in vivo with hypoxanthine. More on the design: species or system ddY mice. The conditions noted are these: for suppression of the tumor growth: FIG. 1. The procedure:
When the tumors became palpable (5-7 mm in diameter), usually 7 days after implantation, the treatment was resumed.
Hypoxanthine (13.3 mg/kg) was injected intraperitoneally six times, each time more than 6 hrs after the last time, as indicated by asterisks (*) in the FIG. 1 to 3.

The nature of data set [3]: Systemic side effect of PEG-XO-high/hypoxanthine. Type of data set: in vivo. As to conditions: PEG-XO/hypoxanthine therapy.
The conditions of data set [4]: Bray and Swann 1972; confirmed by the inventors; cited from earlier work.
[5] abbreviates: 2 administrations 0.6 U/mouse, hypoxanthine 13.3 mg/kg i.p.
Setting [6] is: 15 days after tumor inoculation, 2 times 0.6 U/mouse i.v. (day 7, 9), hypoxanthine 13.3 mg/kg i.p. six times.

For D-amino acid oxidase [native DAO], in the data set with S180 solid tumor, the “suppression of the tumor growth” value is recorded as “no significant reduction of the tumor growth”.
In the case of “PEG-XO-high: Xanthine oxidase conjugated with succinimide activated-PEG (Mw 5000), 49% of amino groups modified”, in data set [1], the XO activity is reported as 1.15 U/mg protein and the “enzyme activity compared with native XO” value stood at 54%. The “XO activity in S-180 solid tumor tissue after injection” value in data set [2] (0.2 U/mouse i.v., 24 hrs, FIG. 6B) was “a new large peak of XO activity was observed”. Further, in data set [2] (FIG. 7), the “PEG-XO-high activity in tumor over time” value is on record as “increased in a time dependent manner”. Also, the “suppression of the tumor growth” value in the data set with S-180 solid tumor (setting [5]) is “significant (p<0.05) suppression of the tumor growth”. The “antitumor activity” value in the data set with S-180 solid tumor (3 administrations 0.6 U/mouse, hypoxanthine 13.3 mg/kg i.p., FIG. 2) is “remarkable antitumor activity”. Besides, the weight of tumor with S-180 solid tumor (13 days after tumor inoculation, 3 times 0.6 U/mouse i.v. (day 7, 8, 9), hypoxanthine 13.3 mg/kg i.p. 6 times) came out at 0.13 ± 0.08 g. The substance also displayed a weight of tumor in the data set with S-180 solid tumor (setting [6]) of 0.22 ± 0.05 g. Further, the “inhibition of tumor growth” value in the data set with S-180 solid tumor (day 13, 3 administrations 0.6 U/mouse, hypoxanthine 13.3 mg/kg i.p.) is on record as 77%. Moreover, the “inhibition of the tumor growth” value in the data set on S-180 solid tumor (day 15, 2 administrations 0.6 U/mouse, hypoxanthine 13.3 mg/kg i.p.) was 39%.
As for “PEG-XO-low: Xanthine oxidase conjugated with succinimide activated-PEG (Mw 5000), 17% of amino groups modified”, in data set [1], the XO activity turned out to be 2.40 U/mg protein and the “enzyme activity compared with native XO” value stood at 110%.
For the substance “PEG-XO: Chemically conjugated XO with poly(ethylene glycol); generic term, in vivo work used PEG-XO-high”, the “hematotoxicity or liver toxicity” value in data set [3] was “No serious or significant hematotoxicity or liver toxicity”.
In turn, xanthine oxidase [Native-XO] gave an XO activity in data set [1] of 2.12 U/mg protein. Moreover, the “suppression of the tumor growth” value with S-180 solid tumor (setting [5]) is “no significant reduction of the tumor growth”. The weight of tumor in the data set on S-180 solid tumor (setting [6]) was 0.31 ± 0.03 g. The “antitumor effect of native XO (literature)” value in data set [4] is “insignificant”.
